“Also recorded” adds a separate entry of the source. Like-named read-outs stand apart in the source and are kept apart here.
Experiments:
NACK = biological target: T1, NACK (Mus musculus, UniProt Q571I4); assay: Surface plasmon resonance (SPR) binding to GST tagged NACK
T1 sequence (Q571I4 1-1373): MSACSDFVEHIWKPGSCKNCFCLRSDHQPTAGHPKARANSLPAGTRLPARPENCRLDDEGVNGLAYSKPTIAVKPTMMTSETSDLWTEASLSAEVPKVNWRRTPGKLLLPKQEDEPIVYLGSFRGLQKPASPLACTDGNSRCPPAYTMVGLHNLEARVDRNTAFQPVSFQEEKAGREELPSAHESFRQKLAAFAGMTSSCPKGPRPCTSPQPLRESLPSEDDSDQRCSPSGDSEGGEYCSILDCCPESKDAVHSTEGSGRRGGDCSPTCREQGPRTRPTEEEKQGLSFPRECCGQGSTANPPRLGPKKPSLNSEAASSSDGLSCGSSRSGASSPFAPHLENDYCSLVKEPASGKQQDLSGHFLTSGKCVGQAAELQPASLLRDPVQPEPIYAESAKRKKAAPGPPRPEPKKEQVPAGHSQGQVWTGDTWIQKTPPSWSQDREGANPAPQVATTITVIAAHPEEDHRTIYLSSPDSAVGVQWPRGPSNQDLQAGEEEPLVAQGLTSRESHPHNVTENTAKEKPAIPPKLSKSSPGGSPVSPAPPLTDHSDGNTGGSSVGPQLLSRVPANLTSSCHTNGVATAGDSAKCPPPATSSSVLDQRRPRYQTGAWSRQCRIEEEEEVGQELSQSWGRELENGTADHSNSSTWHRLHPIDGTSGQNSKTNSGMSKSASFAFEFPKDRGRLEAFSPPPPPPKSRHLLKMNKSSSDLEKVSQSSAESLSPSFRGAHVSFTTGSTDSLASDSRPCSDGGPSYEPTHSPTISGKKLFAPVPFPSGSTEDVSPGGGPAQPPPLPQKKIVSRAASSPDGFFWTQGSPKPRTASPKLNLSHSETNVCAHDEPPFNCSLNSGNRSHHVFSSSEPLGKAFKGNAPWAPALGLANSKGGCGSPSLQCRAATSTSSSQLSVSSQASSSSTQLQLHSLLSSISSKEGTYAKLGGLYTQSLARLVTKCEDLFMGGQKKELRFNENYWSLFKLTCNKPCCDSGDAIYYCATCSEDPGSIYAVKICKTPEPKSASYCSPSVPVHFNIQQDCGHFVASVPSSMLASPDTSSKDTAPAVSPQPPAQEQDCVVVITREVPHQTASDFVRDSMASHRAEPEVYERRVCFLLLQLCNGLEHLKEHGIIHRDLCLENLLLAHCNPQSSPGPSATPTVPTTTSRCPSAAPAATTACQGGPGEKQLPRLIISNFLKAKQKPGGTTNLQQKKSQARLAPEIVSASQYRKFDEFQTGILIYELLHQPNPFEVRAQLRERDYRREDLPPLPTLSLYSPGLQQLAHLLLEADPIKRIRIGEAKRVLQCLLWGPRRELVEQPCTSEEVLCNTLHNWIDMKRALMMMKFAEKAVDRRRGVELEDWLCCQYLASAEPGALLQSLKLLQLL
Method: The interaction between inhibitor Z271-0326 and target NACK was characterized using surface plasmon resonance (SPR). For this purpose, GST tagged NACK was captured by a GST antibody that was previously immobilized onto the surface of the chip through standard amide coupling. The dissociation constants associated with binding of the compounds to NACK was determined using the equilibrium approach, which consists of plotting the equilibrium response (Req) as a function of concentration of the compound and fitting the data to a 1:1 binding model.
A GST capture kit (GE Healthcare) were utilized to covalently immobilize an anti-GST antibody, provided in the kit, to the sensor chip surface (CM5 chip, GE Healthcare) by following the manufacturer's instructions. Capture were performed by injecting GST-NACK (1 μg/μL) over the immobilized anti-GST antibody in Hepes buffer (10 mM Hepes, pH 7.5, 150 mM NaCl, 3 mM EDTA, 0.0005% NP-40) for 7 min at 10 μL/min. A reference flow cell was prepared by capturing GST following the procedure described above. […] Experiments were performed on a Biacore T200 instrument (GE Healthcare) at 25° C. Small molecule inhibitors binding to NACK were performed in 50 mM Tris buffer, pH 7.5, containing 150 mM NaCl, 10 mM MgCl2 and 5% DMSO (running buffer). The SPR signal arising from the sample was corrected for its respective control containing DMSO. Data visualization and analysis was performed using Biacore T200 software (GE Healthcare) and Origin 8.0 (OriginLab).

Notch target genes = assay: RT-qPCR of Notch target genes in Notch/NACK-dependent cells; type: cell-based, human; conditions: for down regulation of Notch target genes (q-PCR profile): compared to Z271-0326, FIGS. 13A-13D
Method: To assess the effect of NACK inhibitor on Notch target gene transcription, Notch/NACK-dependent cell lines were treated with NACK inhibitors. The cells were also treated with DAPT as a positive control. DMSO treated cells served as a vehicle control for comparison. Gene expression was normalized to HPRT, and TBP served as a negative control to validate normalization.
Reverse transcription and qPCR analysis were performed as described previously (See Weaver et al., Cancer Research 74, 4741-4751 (2014)). Gene expression was normalized to the TATA-binding protein (“TBP”) gene. As a control, hypoxanthine phosphoribosyltransferase 1 (“HPRT”) gene expression was also monitored.

OE33 cell line = assay: Colony formation assay in OE33 cells; type: cell-based, human; conditions: for EC50: Homo sapiens, read-out: EC50 colony formation titration assay; for OE33 colony formation: cells treated every other day, FIGS. 5B, 5C
Method: (§1) A cell based colony formation assay was used in these experiments. Normal mouse mammary epithelia HC11 cells have little or no endogenous NACK expression, and NACK knockdown had no effect on the growth of HC11 cells (FIG. 5A, lower panel). […] Knockdown of NACK was confirmed by western blot and qPCR (FIGS. 1D and 1E). […] Therefore, compounds that affect OE33 colony formation but not HC11 were desired. In order to screen the compounds, cells were treated with test compounds every other day.
(§2) Colony formation assay was utilized to determine the effect of small molecule inhibitors on cell proliferation. In general, different cell lines (NACK dependent or independent) will be seeded in 6-well plates at a density of 2000 cells per well and allowed to attach overnight. Inhibitor treatment commenced 24 hours post seeding, and the media containing inhibitor was changed every 48 hours thereafter. After 168 hours, colonies were be stained with Crystal Violet (Millipore) and counted.

HC11 cells = assay: Colony formation assay in HC11 cells; type: cell-based, mouse; conditions: Notch/NACK independent cell line; FIG. 5B
Method: as §1, §2

[1] = biological target: T2, NACK binding to the Notch transcription complex (Mus musculus, UniProt Q571I4); assay: CSL-DNA affinity precipitation (CSL-DAP) assay; type: cell-based; conditions: 293T cells transfected with N1ICD, Maml1, NACK; 2 hours treatment; FIG. 6A
T2 construct: expressed in transfected cells; host or cells: 293T
T2 sequence (Q571I4 1-1373): T1 sequence (Q571I4 1-1373)
Method: To determine the specificity of hit-to-lead compounds targeting NACK activity, it was evaluated whether iNACK can block NACK binding to the Notch complex by conducting CSL-DNA affinity precipitation (CSL-DAP) assay. […] In the CSL-DAP assay, 293T cells were co-transfected with N1^ICD, Maml1 and NACK. Transfections were performed using LipoJet transfection reagent (SL100468, SignaGen Laboratories) according to the manufacturer recommended protocol. After two days of transfection, cells were treated with compounds for 2 hours prior collecting the cell lysate. Cell lysates were incubated with DNA streptavidin beads. Proteins that bound to the beads were analyzed by Western blot.
Western blot was performed as described previously (See Weaver et al., Cancer Research 74, 4741-4751 (2014)). Primary antibodies were α-NACK (1:1,000; against aa209-287 of NACK and affinity purified), α-CSL (1:1,000; generated against full-length CSL and affinity purified), α-Maml1 (1:5,000; Cell Signaling Technology), α-cleaved-Notch1 (1:1,000; Cell Signaling Technology).

OE33 spheres = assay: Tumor sphere formation assay in OE33; type: cell-based, human; conditions: OE33; FIG. 7A
Method: In order to assess the effect of hit to lead compounds on the proliferation of stem cell like population of Notch/NACK dependent cells, the primary tumor spheres were treated with NACK inhibitor and allow the cells to be propagated as secondary cultures. To obtain tumor spheres, cells were cultured in DMEM/F12 with 2% B-27 serum-free supplement (17604-044; Invitrogen), 20 ng/mL epidermal growth factor (EGF; PHG0311L; Invitrogen), and 20 ng/mL basic fibroblastic growth factor (bFGF; PHG0266; Invitrogen) for 14 days. Resulting tumor spheres were examined and counted under the microscope. Furthermore, the tumor spheres were collected for further RT-qPCR analysis to test the effect of hit to lead compounds on the stem like target genes.

Nc1ncnc2c1ncn2[C@@H]1O[C@H](COP(=O)(O)OP(=O)(O)NP(=O)(O)O)[C@@H](O)[C@H]1O [AMP-PNP]
Kd (NACK; SPR, FIG. 4C, read-out: binding constant): ~1500 nM | Kd (NACK; equilibrium approach, 1:1 binding model, 25° C., FIG. 10A, read-out: KD): 1500 ± 500 nM

CCN(CC)C(=O)c1cnn2ccc(C3CCN(S(=O)(=O)c4ccc(NC(=O)OC)cc4)CC3)cc12 [Compound 7C, methyl N-[4-({4-[3-(diethylcarbamoyl)pyrazolo[1,5-a]pyridin-5-yl]piperidinyl}sulfonyl)phenyl]carbamate]
expression of oncogenes cMYC, CCND1, HES1 (Q-PCR) (Notch target genes; with respect to DMSO and Z271-0326, FIG. 16): downregulate oncogenes cMYC, CCND1, and HES1

CC(=O)Nc1ccc(S(=O)(=O)N2CCC(c3ccn4ncc(C(=O)N5CCCC5)c4c3)CC2)cc1 [Compound 7H, N-[4-({4-[3-(pyrrolidine-1-carbonyl)pyrazolo[1,5-a]pyridin-5-yl]piperidin-1-yl}sulfonyl)phenyl]acetamide]
down regulation of Notch target genes (q-PCR profile) (Notch target genes): performed the best in down regulating Notch target genes, even better than Z271-0326

CC(=O)Nc1ccc(S(=O)(=O)N2CCC(c3ccn4ncc(C(=O)N5CCCCC5)c4c3)CC2)cc1 [Compound 7M, N-[4-({4-[3-(piperidine-1-carbonyl)pyrazolo[1,5-a]pyridin-5-yl]piperidin-1-yl}sulfonyl)phenyl]acetamide]
down regulation of Notch target genes (q-PCR profile) (Notch target genes): can also down regulate Notch target genes, but not as good as compound 7H

CC(C)(C)OC(=O)Nc1ccc(S(=O)(=O)N2CCC(c3ccn4ncc(C(=O)N5CCCC5)c4c3)CC2)cc1 [Compound 71B, tert-butyl N-[4-({4-[3-(pyrrolidine-1-carbonyl)pyrazolo[1,5-a]pyridin-5-yl]piperidin-1-yl}sulfonyl)phenyl]carbamate]
EC50 (OE33 cell line; OE33, OE33 cell line, FIG. 18): 608 nM

CC(=O)Nc1ccc(S(=O)(=O)N2CCC(c3ccn4ncc(C(=O)N5CCC5)c4c3)CC2)cc1 [Compound 71C, N-[4-({4-[3-(azetidine-1-carbonyl)pyrazolo[1,5-a]pyridin-5-yl]piperidin-1-yl}sulfonyl)phenyl]acetamide]
EC50 (OE33 cell line; OE33, OE33 cell line, FIG. 18): 330 nM

N#Cc1cccc(NC(=O)N2CCC(c3ccn4ncc(C(=O)N5CCCCC5)c4c3)CC2)c1 [Compound Z270-0137]
OE33 colony formation (OE33 cell line): effectively inhibit OE33 colony formation | HC11 colony formation / viability (HC11 cells): but not HC11 cell

O=C(c1cnn2ccc(C3CCN(S(=O)(=O)Cc4ccccc4)CC3)cc12)N1CCCCC1 [Compound Z271-0132]
selectivity between OE33 and HC11 cell lines (OE33 cell line; colony formation): displays no selectivity between OE33 and HC11 cell lines | inhibition of NACK binding to the Notch transcription complex [1]: dramatically inhibit NACK binding to the NOTCH transcription complex; also recorded: blocks binding of NACK to the ternary complex

CC1CCN(C(=O)c2cnn3ccc(C4CCN(S(=O)(=O)c5ccccc5)CC4)cc23)CC1 [Compound Z271-0191]
EC50 (OE33 cell line; OE33, estimated, FIG. 6C): 3740 nM | OE33 colony formation (OE33 cell line): effectively inhibit OE33 colony formation | HC11 colony formation / viability (HC11 cells): but not HC11 cell | mRNA levels of Notch target genes Hes1 and Notch3 (Notch target genes; OE33, FIG. 6B): decrease the mRNA levels of Notch target genes Hes1 and Notch3 | secondary sphere formation (OE33 spheres): less effective compared to Z271-0326 | inhibition of NACK binding to the Notch transcription complex [1]: dramatically inhibit NACK binding to the NOTCH transcription complex

— patent publication US12077508B2, “Inhibitors of the Notch transcriptional activation complex kinase (“NACK”) and methods for use of the same” (UNIVERSITY OF MIAMI, priority 2018, dated 2024)
